{"source": "paper PMC5915836", "about": "“Chiral probes for α1-AGP reporting by species-specific induced circularly polarised luminescence” (Chemical Science, 2018)", "key": {"[1]": {"target": "T1, bovine α1-AGP (α1-acid glycoprotein) (Bos taurus, UniProt Q3SZR3)", "T1 construct": "gene ORM1", "T1 sequence (Q3SZR3 19-202)": "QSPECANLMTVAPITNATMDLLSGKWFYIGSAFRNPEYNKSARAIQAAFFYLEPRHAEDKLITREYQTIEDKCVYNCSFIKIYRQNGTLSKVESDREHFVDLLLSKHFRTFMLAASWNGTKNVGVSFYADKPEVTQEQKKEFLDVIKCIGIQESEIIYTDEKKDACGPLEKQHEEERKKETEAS", "experiment": "competitive displacement of [EuL^[…]], Eu emission", "assay_type": "binding", "parameters": "unit not given here", "details": "pH 7.40, 298 K; competitive with [EuL^1]"}, "[2]": {"target": "T2, human α1-AGP (α1-acid glycoprotein)", "T2 construct": "gene ORM1", "details": "pH 7.40, 298 K; competitive with [EuL^1]"}}}
{"smiles": "CCCCN1CCCCC1C(=O)Nc1c(C)cccc1C", "note": "(centres unmarked) [bupivacaine]", "values": [{"measurement": "Bupivacaine", "setting": "[1]", "result": 6.4}, {"measurement": "Bupivacaine", "setting": "[2]", "result": 5.6}]}
